# Results published in patent publication US8445503B2, “Inhibitors of polo-like kinase” (Elan Pharmaceuticals, Inc., priority 2009, dated 2013).
# Read-outs that look alike come from different tables or passages of the source.
# Assays:
# Assay type in all cases: biochemical
# GST-PLK3 = target: T1, GST-PLK3 (Homo sapiens, UniProt Q9H4B4); assay: PLK TR-FRET peptide assay, PLK3
# T1 construct: purchased CarnaBio
# GST-PLK1 = GST-PLK1 (Homo sapiens, UniProt P53350); assay: PLK TR-FRET peptide assay, PLK1; details: read-out: Plk1 IC50
# Chain of GST-PLK1 (P53350 whole entry): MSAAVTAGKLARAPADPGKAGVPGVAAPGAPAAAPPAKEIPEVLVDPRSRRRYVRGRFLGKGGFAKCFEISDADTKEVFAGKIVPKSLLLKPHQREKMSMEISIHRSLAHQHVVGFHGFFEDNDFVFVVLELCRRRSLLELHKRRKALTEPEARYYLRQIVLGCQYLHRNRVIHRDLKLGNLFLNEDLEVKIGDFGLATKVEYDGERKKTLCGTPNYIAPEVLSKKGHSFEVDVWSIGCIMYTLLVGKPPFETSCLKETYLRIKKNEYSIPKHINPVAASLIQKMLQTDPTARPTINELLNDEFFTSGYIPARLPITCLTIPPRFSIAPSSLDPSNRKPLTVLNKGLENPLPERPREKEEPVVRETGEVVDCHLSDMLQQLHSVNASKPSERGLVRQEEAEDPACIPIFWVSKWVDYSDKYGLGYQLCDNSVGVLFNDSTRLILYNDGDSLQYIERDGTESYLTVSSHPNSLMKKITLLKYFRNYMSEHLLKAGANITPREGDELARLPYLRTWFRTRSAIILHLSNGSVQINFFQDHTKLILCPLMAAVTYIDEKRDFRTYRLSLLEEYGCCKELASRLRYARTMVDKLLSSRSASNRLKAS
# GST-PLK2 = target: T2, GST-PLK2 (Homo sapiens, UniProt Q9NYY3); assay: PLK TR-FRET peptide assay, PLK2; details: for IC50: read-out: Plk2 IC50
# T2 construct: purchased CarnaBio
# T2 sequence (Q9NYY3 whole entry): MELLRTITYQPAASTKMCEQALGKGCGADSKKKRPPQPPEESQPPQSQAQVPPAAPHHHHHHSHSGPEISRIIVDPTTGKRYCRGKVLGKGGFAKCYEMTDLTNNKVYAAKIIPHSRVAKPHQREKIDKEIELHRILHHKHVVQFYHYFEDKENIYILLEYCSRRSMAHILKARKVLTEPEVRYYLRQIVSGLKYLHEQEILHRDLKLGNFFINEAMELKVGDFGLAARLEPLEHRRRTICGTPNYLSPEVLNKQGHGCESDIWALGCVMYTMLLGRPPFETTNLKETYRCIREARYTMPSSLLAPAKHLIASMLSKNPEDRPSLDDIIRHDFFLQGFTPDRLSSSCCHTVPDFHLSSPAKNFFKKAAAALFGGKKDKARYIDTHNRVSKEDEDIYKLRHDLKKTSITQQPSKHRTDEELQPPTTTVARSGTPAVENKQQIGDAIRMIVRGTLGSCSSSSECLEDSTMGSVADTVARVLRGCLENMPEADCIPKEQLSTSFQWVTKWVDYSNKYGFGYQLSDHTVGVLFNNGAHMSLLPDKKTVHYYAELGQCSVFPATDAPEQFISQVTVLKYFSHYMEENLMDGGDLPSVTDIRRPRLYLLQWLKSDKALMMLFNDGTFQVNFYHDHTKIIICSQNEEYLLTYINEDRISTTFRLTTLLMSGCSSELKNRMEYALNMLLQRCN
# [1] = PLK TR-FRET peptide assay, GST-PLK3; read-out: Plk3 IC50
# [2] = PLK TR-FRET peptide assay, GST-PLK2
# T1 sequence (Q9H4B4 whole entry): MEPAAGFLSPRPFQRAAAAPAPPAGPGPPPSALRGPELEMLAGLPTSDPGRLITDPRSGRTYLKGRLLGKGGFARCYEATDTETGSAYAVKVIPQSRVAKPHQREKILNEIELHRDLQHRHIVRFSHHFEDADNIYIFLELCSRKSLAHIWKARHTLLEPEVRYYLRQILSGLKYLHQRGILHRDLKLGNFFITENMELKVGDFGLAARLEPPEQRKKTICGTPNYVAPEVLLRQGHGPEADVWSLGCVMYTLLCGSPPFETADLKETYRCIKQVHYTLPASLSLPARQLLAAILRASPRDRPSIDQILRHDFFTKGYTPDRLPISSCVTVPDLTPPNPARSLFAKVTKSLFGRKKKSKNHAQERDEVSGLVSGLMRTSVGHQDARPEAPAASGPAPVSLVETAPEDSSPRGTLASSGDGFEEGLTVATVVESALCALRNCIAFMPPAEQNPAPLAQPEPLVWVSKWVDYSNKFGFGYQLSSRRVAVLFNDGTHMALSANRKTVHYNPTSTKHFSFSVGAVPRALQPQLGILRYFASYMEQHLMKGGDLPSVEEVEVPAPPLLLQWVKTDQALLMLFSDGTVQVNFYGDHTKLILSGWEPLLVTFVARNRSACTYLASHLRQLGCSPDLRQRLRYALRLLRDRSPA
IC50 (GST-PLK3; [1]) [µM],IC50 (GST-PLK1) [µM],IC50 (GST-PLK2; [2]) [µM],"PLK2 activity relative to the opposite enantiomer / other isomer (GST-PLK2; comparison of resolved enantiomers, used to assign absolute configuration)",SMILES,"IC50 (GST-PLK3; read-out: Plk3 IC50; PLK TR-FRET peptide assay, GST-PLK3) [µM]",IC50 (GST-PLK2) [µM]
1 to 10,< 1,< 1,–,"CC[C@@H]1C(=O)N(C)c2cnc(-c3cnsc3-c3ccc(F)cc3)nc2N1C(C)C [Example 296, (R)-7-ethyl-2-(5-(4-fluorophenyl)isothiazol-4-yl)-8-isopropyl-5-methyl-7,8-dihydropteridin-6(5H)-one]",–,–
> 50,> 50,10 to 50,–,"CCC1C(=O)N(C)c2cnc(-n3ccnc3-c3ccccc3)nc2N1NC(=O)OC(C)(C)C (stereo not shown) [Example 275, tert-butyl 7-ethyl-5-methyl-6-oxo-2-(2-phenyl-1H-imidazol-1-yl)-6,7-dihydropteridin-8(5H)-ylcarbamate]",–,–
10 to 50,1 to 10,< 1,–,"CC[C@@H]1C(=O)N(C)c2cnc(-n3ccnc3-c3ccncc3)nc2N1C1CCC1 [Example 81, (R)-8-cyclobutyl-7-ethyl-5-methyl-2-(2-(pyridin-4-yl)-1H-imidazol-1-yl)-7,8-dihydropteridin-6(5H)-one]",–,–
1 to 10,10 to 50,< 1,–,"CCC12COCCN1c1nc(-c3cn[nH]c3-c3ccc(F)cc3F)ncc1N(C)C2=O (racemic) [Example 405, 2-(5-(2,4-difluorophenyl)-1H-pyrazol-4-yl)-6a-ethyl-5-methyl-6a,7,9,10-tetrahydro-[1,4]oxazino[3,4-h]pteridin-6(5H)-one]",–,–
10 to 50,1 to 10,< 1,–,"CC[C@@H]1C(=O)N(C)c2cnc(-n3ccnc3-c3cccnc3)nc2N1C(C)C [Example 154, (R)-7-ethyl-8-isopropyl-5-methyl-2-(2-(pyridin-3-yl)-1H-imidazol-1-yl)-7,8-dihydropteridin-6(5H)-one]",–,–
10 to 50,10 to 50,< 1,–,"CC[C@@H]1C(=O)N(C)c2cnc(-n3cnc(CCN)c3)nc2N1C1CCCC1 [Example 62, (R)-2-(4-(2-aminoethyl)-1H-imidazol-1-yl)-8-cyclopentyl-7-ethyl-5-methyl-7,8-dihydropteridin-6(5H)-one]",–,–
1 to 10,10 to 50,< 1,–,"CC[C@@]12COCCN1c1nc(-c3cccnc3-c3ccccc3)ncc1N(C)C2=O [Example 403, (S)-6a-ethyl-5-methyl-2-(2-phenylpyridin-3-yl)-6a,7,9,10-tetrahydro-[1,4]oxazino[3,4-h]pteridin-6(5H)-one]",–,–
< 1,< 1,< 1,–,"CC[C@@H]1C(=O)N(C)c2cnc(-n3ccnc3-c3cn[nH]c3)nc2N1C1CCCC1 [Example 97, (R)-2-(2-(1H-pyrazol-4-yl)-1H-imidazol-1-yl)-8-cyclopentyl-7-ethyl-5-methyl-7,8-dihydropteridin-6(5H)-one]",–,–
> 50,1 to 10,< 1,–,"CC[C@@H]1C(=O)N(C)c2cnc(-n3ccnc3-c3cncnc3)nc2N1C1CCC1 [Example 176, (R)-8-cyclobutyl-7-ethyl-5-methyl-2-(2-(pyrimidin-5-yl)-1H-imidazol-1-yl)-7,8-dihydropteridin-6(5H)-one]",–,–
1 to 10,< 1,< 1,–,"CC[C@@H]1C(=O)N(C)c2cnc(-n3cnc(-c4cccnc4)c3)nc2N1C1CCCC1 [Example 59, (R)-8-cyclopentyl-7-ethyl-5-methyl-2-(4-(pyridin-3-yl)-1H-imidazol-1-yl)-7,8-dihydropteridin-6(5H)-one]",–,–
10 to 50,< 1,< 1,–,"CC[C@@H]1C(=O)N(C)c2cnc(-c3ccncc3)nc2N1C1CCCC1 [Example 5, (R)-8-cyclopentyl-7-ethyl-5-methyl-2-(pyridin-4-yl)-7,8-dihydropteridin-6(5H)-one]",–,–
1 to 10,10 to 50,< 1,–,"CCC12COCCN1c1nc(-n3ccnc3-c3ccccc3)ncc1N(C)C2=O (racemic) [Example 317, 6a-ethyl-5-methyl-2-(2-phenyl-1H-imidazol-1-yl)-6a,7,9,10-tetrahydro-[1,4]oxazino[3,4-h]pteridin-6(5H)-one]",–,–
1 to 10,< 1,< 1,–,CC[C@@]12COCCN1c1nc(-c3ccncc3-c3ccccc3)ncc1N(C)C2=O [Example 395],–,–
10 to 50,< 1,< 1,–,"CC[C@@H]1C(=O)N(C)c2cnc(-c3ccn(C)c(=O)c3)nc2N1C1CCCC1 [Example 19, (R)-8-cyclopentyl-7-ethyl-5-methyl-2-(1-methyl-2-oxo-1,2-dihydropyridin-4-yl)-7,8-dihydropteridin-6(5H)-one]",–,–
10 to 50,10 to 50,< 1,–,"CN1C(=O)[C@]2(C)CCCN2c2nc(-n3ccnc3-c3ccccc3)ncc21 [Example 80, (S)-5,6a-dimethyl-2-(2-phenyl-1H-imidazol-1-yl)-6a,7,8,9-tetrahydropyrrolo[2,1-h]pteridin-6(5H)-one]",–,–
1 to 10,1 to 10,< 1,–,"CC[C@@]12CCCN1c1nc(-n3ncnc3-c3ccccc3)ncc1N(C)C2=O [Example 189, (S)-6a-ethyl-5-methyl-2-(5-phenyl-1H-1,2,4-triazol-1-yl)-6a,7,8,9-tetrahydropyrrolo[2,1-h]pteridin-6(5H)-one]",–,–
1 to 10,< 1,1 to 10,–,"CC[C@@H]1C(=O)N(C)c2cnc(-n3cnc(C(=O)OC)c3)nc2N1C1CCCC1 [Example 38, (R)-methyl 1-(8-cyclopentyl-7-ethyl-5-methyl-6-oxo-5,6,7,8-tetrahydropteridin-2-yl)-1H-imidazole-4-carboxylate]",–,–
> 50,> 50,> 50,–,"CC[C@H]1C(=O)N(C)c2cnc(-n3ccnc3-c3ccccc3)nc2N1c1cnn(C)c1 [Example 410, (S)-7-ethyl-5-methyl-8-(1-methyl-1-pyrazol-4-yl)-2-(2-phenyl-1H-imidazol-1-yl)-7,8-dihydropteridin-6(5H)-one]",–,–
> 50,> 50,1 to 10,–,"CC[C@@]12CCCN1c1nc(-n3ccnc3-c3cccnc3)ncc1N(C)C2=O [Example 137, (S)-6a-ethyl-5-methyl-2-(2-(pyridin-3-yl)-1H-imidazol-1-yl)-6a,7,8,9-tetrahydropyrrolo[2,1-h]pteridin-6(5H)-one]",–,–
1 to 10,< 1,< 1,–,"CC[C@@H]1C(=O)N(C)c2cnc(-n3cnc(C(N)=O)c3)nc2N1C1CCCC1 [Example 69, (R)-1-(8-cyclopentyl-7-ethyl-5-methyl-6-oxo-5,6,7,8-tetrahydropteridin-2-yl)-1H-imidazole-4-carboxamide]",–,–
1 to 10,< 1,1 to 10,–,"CC[C@@H]1C(=O)N(C)c2cnc(-n3cc(C(=O)O)cn3)nc2N1C1CCCC1 [Example 44, (R)-1-(8-cyclopentyl-7-ethyl-5-methyl-6-oxo-5,6,7,8-tetrahydropteridin-2-yl)-1H-pyrazole-4-carboxylic acid]",–,–
> 50,> 50,1 to 10,–,"CC[C@@H]1C(=O)N(C)c2cnc(-n3ccnc3-c3ccncc3)nc2N1C1CC1 [Example 147, (R)-8-cyclopropyl-7-ethyl-5-methyl-2-(2-(pyridin-4-yl)-1H-imidazol-1-yl)-7,8-dihydropteridin-6(5H)-one]",–,–
> 50,> 50,< 1,more active compound,"CC[C@@]12COCCN1c1nc(-n3ccnc3-c3nccs3)ncc1N(C)C2=O [Example 387, (S)-6a-ethyl-5-methyl-2-(2-(thiazol-2-yl)-1H-imidazol-1-yl)-6a,7,9,10-tetrahydro-[1,4]oxazino[3,4-h]pteridin-6(5H)-one]",–,–
1 to 10,< 1,< 1,–,"CC[C@@H]1C(=O)N(C)c2cnc(-n3ccnc3-c3cncnc3)nc2N1C1CCCC1 [Example 159, (R)-8-cyclopentyl-7-ethyl-5-methyl-2-(2-(pyrimidin-5-yl)-1H-imidazol-1-yl)-7,8-dihydropteridin-6(5H)-one]",–,–

SMILES,IC50 (GST-PLK3; [1]) [µM],IC50 (GST-PLK1) [µM],IC50 (GST-PLK2; [2]) [µM],"PLK2 activity relative to the opposite enantiomer / other isomer (GST-PLK2; comparison of resolved enantiomers, used to assign absolute configuration)","IC50 (GST-PLK3; read-out: Plk3 IC50; PLK TR-FRET peptide assay, GST-PLK3) [µM]",IC50 (GST-PLK2) [µM]
"CC[C@@H]1C(=O)N(C)c2cnc(-n3ccnc3Br)nc2N1C1CCCC1 [Example 65, (R)-2-(2-bromo-1H-imidazol-1-yl)-8-cyclopentyl-7-ethyl-5-methyl-7,8-dihydropteridin-6(5H)-one]",10 to 50,< 1,< 1,–,–,–
"CC[C@@H]1C(=O)N(C)c2cnc(-c3nccnc3-c3ccccc3)nc2N1C1CCCC1 [Example 138, (R)-8-cyclopentyl-7-ethyl-5-methyl-2-(3-phenylpyrazin-2-yl)-7,8-dihydropteridin-6(5H)-one]",–,< 1,–,–,< 1,< 1
"CC[C@@H]1C(=O)N(C)c2cnc(-n3nccc3-c3ccccc3)nc2N1C(C)C [Example 188, (R)-7-ethyl-8-isopropyl-5-methyl-2-(5-phenyl-1H-pyrazol-1-yl)-7,8-dihydropteridin-6(5H)-one]",1 to 10,< 1,< 1,–,–,–
"CCC1C(=O)N(C)c2cnc(-n3ccnc3-c3ccc(F)cc3)nc2N1c1cnn(COCC[Si](C)(C)C)c1 (stereo not shown) [Example 342, 7-ethyl-2-(2-(4-fluorophenyl)-1H-imidazol-1-yl)-5-methyl-8-(1-((2-(trimethylsilyl)ethoxy)methyl)-1H-pyrazol-4-yl)-7,8-dihydropteridin-6(5H)-one]",1 to 10,10 to 50,< 1,–,–,–
"CC[C@@H]1C(=O)N(C)c2cnc(-n3ncnc3-c3ccccc3)nc2N1C(C)C [Example 195, (R)-7-ethyl-8-isopropyl-5-methyl-2-(5-phenyl-1H-1,2,4-triazol-1-yl)-7,8-dihydropteridin-6(5H)-one]",< 1,< 1,< 1,–,–,–
